# According to patent EP0406958B1, “Positive inotropic and lusitropic 3,5-dihydroimidazo[2,1-b]quinazolin-2(1H)-one derivatives” (JANSSEN PHARMACEUTICA N.V., priority 1989, dated 1991):
# What was measured:
# [1] = system: mongrel dogs; test: Haemodynamic variables in dogs after cumulative intravenous bolus administration; assay type: in vivo; conditions: maximum end-dose 0.16 mg kg-1 (comp. 14: 0.08 mg kg-1)
# Method: Compound (9) was dissolved in 20% hydroxypropyl beta cyclodextrine ether slightly acidified with 1N HCl, in a concentration of 1mg.ml⁻¹ (pH 5.5). The experiments were performed on 7 mongrel dogs of either sex and varying age, ranging in body weight from 27 to 33 kg (median 30 kg). The animals were intravenously anaesthetized with a mixture of 0.015 mg.kg⁻¹ scopolamine and 0.05 mg.kg⁻¹ lofentanil. The animals were intubated with a cuffed endotracheal tube. Intermittent positive pressure ventilation was performed with a mixture of pressurized air and oxygen (60/40), using a volumecontrolled ventilator (Siemens Elema). In the control period the CO₂ concentration in the expired air (ET CO₂), as determined with a capnograph (Gould Godart), was kept at 5 vol% by adjustment of the respiratory volume (resp. rate = 20 breaths.min⁻¹). A continous intravenous infusion of 0.5 mg.kg⁻¹.h⁻¹ of etomidate was started immediately after induction. Body temperature was monitored with a thermistor positioned in the pulmonary artery. To prevent blood clotting heparine, 1000 IU.kg⁻¹ iv., was administered. The electrocardiogram (ECG) was derived from limb leads (standard lead 2). Left ventricular (LVP) and ascending aortic blood pressure (AoP) were measured by retrograde catheterisation via the femoral […] with high fidelity cathetertip micromanometers (Honeywell). The other femoral vein was cannulated for injection of saline at room temperature into the right atrium and for injection of compound (9). Peak ascending aortic blood flow velocity was measured through the right carotid artery with an electomagnetic catheter-tip probe connected to a square wave electomagnetic flow meter (Janssen Scientific Instruments). The following variables -inter alia- were calculated on-line, usually at 1 min intervals: heart rate (HR), diastolic (AoPd) aortic blood pressure, left ventricular end-diastolic pressure (LVEDP), the maximum positive and maximum negative rate of change of isovolumic LVP (LV dp/dt max and min, respectively), the maximum positive first derivative divided by the actually developed pressure in the left ventricle (LV dp/dtmax/Pd). The time constant (T) of relaxation was measured with the use of an exponential analysis that also estimated the asymptote. […] In the wash-out period the effects were followed for 75 min. […]
# [2] = molecular target: T1, Human Platelet PDE IIIc (Homo sapiens, UniProt Q14432); test: Inhibition of phosphodiesterase type IIIc (3H-cAMP hydrolysis), human platelet enzyme; assay type: biochemical; conditions: pH 7.1, 1.2 µM 3H-cAMP, 10 min at 37°C; IC50 calculated graphically
# T1 construct: canine heart and human platelet phosphodiesterase PDE IIIc; from tissue; host or cells: human platelets
# T1 sequence (Q14432 whole entry): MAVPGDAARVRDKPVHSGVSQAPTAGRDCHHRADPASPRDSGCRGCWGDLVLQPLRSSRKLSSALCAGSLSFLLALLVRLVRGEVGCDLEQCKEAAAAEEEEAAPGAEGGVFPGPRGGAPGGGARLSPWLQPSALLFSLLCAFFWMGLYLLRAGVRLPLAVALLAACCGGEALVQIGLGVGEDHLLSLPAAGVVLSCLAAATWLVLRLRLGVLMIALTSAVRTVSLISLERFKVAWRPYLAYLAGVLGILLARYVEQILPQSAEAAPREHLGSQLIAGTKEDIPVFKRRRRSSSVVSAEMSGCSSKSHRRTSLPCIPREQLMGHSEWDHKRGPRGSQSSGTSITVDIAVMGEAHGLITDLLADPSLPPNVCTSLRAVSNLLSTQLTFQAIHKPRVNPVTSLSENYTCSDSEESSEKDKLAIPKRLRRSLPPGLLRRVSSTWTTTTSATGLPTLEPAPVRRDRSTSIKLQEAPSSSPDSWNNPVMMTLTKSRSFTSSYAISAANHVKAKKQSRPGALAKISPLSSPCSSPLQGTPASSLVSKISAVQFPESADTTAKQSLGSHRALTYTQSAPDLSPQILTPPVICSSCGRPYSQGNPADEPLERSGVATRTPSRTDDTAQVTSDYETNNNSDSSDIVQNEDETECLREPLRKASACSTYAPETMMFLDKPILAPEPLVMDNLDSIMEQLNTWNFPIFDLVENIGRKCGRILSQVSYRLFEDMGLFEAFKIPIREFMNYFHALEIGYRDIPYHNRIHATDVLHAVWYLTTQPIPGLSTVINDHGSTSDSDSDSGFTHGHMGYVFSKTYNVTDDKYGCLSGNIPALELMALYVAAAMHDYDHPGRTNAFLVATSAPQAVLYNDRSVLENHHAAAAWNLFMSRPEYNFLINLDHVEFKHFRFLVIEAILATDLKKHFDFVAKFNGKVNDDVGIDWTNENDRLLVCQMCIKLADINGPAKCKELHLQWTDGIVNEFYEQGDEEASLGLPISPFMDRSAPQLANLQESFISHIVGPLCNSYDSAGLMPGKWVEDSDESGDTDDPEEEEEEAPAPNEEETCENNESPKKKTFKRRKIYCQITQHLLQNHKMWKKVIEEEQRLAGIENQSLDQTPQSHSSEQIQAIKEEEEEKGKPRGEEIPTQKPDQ
# Method: The incubation mixture (pH 7.1) (200 »l) contained 50mM 4-morpholinopropanesulfonic acid (MOPS), 1mM ethylenebis(oxyethylenenitrilo)tetraacetic acid (EGTA), 6 mM magnesium chloride, 0.25 mg/ml bovine serum albumin, 1.2 »M ³H-cAMP (310 mCi/mmole) and the phosphodiesterase type IIIc, and was prepared by dilution with water of a stock solution of MOPS, EGTA, MgCl₂, BSA and ³H-cAMP (50 »l) and 2 to 50 »l of a solution of phosphodiesterase type IIIc, depending on the enzymatic activity. […] When the effect of different compounds on phosphodiesterase activity was tested, the medium without cAMP was incubated with the compound(s) or its carrier (DMSO - 1% final concentration) for 5 min. The enzymatic reaction was started by addition of ³H-cAMP and stopped 10 min later after transferring the tubes in a waterbath at 100°C for 40 sec. After cooling to room temperature, alkaline phosphatase (0.25 »g/ml) was added and the mixture was left at room temperature for 20 min. The mixture was subsequently applied to a 1 ml DEAE-Sephadex A-25 column (pasteur pipet) and washed twice with 3 ml 20 mM Tris-HCl at pH 7.4. The ³H-labelled reaction products in the eluate were quantified by liquid scintillation counting. The inhibiting effect of the present compounds on canine heart and human platelet phosphodiesterase PDE IIIc was measured at different concentrations of the instant compounds. The IC₅₀ values were calculated graphically from the thus obtained inhibition values.
# [3] = system: mongrel dogs; test: Positive inotropy and lusitropy, blood pressure and heart rate in anaesthetized dogs, slow intravenous infusion; assay type: in vivo; conditions: for cardiac output / heart rate: slow iv infusion over 120 min
# Method: The positive inotropic and lusitropic effect of the instant compounds were assessed by an in vitro assay system to detect inhibiting effect on the phosphodiesterase type IIIc and in an in vivo experiment in closed-chest anaestetized dogs by monitoring cardiac and haemodynamic effects of an intravenous infusion of the instant compounds.
# Compound (9) was dissolved in 20% hydroxypropyl beta cyclodextrine ether slightly acidified with 1N HCl, in a concentration of 1mg.ml⁻¹ (pH 5.5). The experiments were performed on 7 mongrel dogs of either sex and varying age, ranging in body weight from 27 to 33 kg (median 30 kg). The animals were intravenously anaesthetized with a mixture of 0.015 mg.kg⁻¹ scopolamine and 0.05 mg.kg⁻¹ lofentanil. The animals were intubated with a cuffed endotracheal tube. Intermittent positive pressure ventilation was performed with a mixture of pressurized air and oxygen (60/40), using a volumecontrolled ventilator (Siemens Elema). In the control period the CO₂ concentration in the expired air (ET CO₂), as determined with a capnograph (Gould Godart), was kept at 5 vol% by adjustment of the respiratory volume (resp. rate = 20 breaths.min⁻¹). A continous intravenous infusion of 0.5 mg.kg⁻¹.h⁻¹ of etomidate was started immediately after induction. Body temperature was monitored with a thermistor positioned in the pulmonary artery. To prevent blood clotting heparine, 1000 IU.kg⁻¹ iv., was administered. The electrocardiogram (ECG) was derived from limb leads (standard lead 2). Left ventricular (LVP) and ascending aortic blood pressure (AoP) were measured by retrograde catheterisation via the femoral […] with high fidelity cathetertip micromanometers (Honeywell). The other femoral vein was cannulated for injection of saline at room temperature into the right atrium and for injection of compound (9). Peak ascending aortic blood flow velocity was measured through the right carotid artery with an electomagnetic catheter-tip probe connected to a square wave electomagnetic flow meter (Janssen Scientific Instruments). The following variables -inter alia- were calculated on-line, usually at 1 min intervals: heart rate (HR), diastolic (AoPd) aortic blood pressure, left ventricular end-diastolic pressure (LVEDP), the maximum positive and maximum negative rate of change of isovolumic LVP (LV dp/dt max and min, respectively), the maximum positive first derivative divided by the actually developed pressure in the left ventricle (LV dp/dtmax/Pd). The time constant (T) of relaxation was measured with the use of an exponential analysis that also estimated the asymptote. After a recorded control period of 20 min the intravenous infusion of compound (9) was started at a rate of […]. In the wash-out period the effects were followed for 75 min. […] These positive inotropic and lusitropic, and vasodilatory effects of the compound (9) are long-lasting, since the changes in the variables last for more than 75 min after stopping the infusion of a total dose of 0.60 mg.kg⁻¹. […]
# [4] = slow infusion (0.005 mg kg-1 min-1) for two hours
SMILES,IC50 [2] [nM],% changes in haemodynamic variables: AoPd (diastolic aortic blood pressure) [1] [%],% changes in haemodynamic variables: HR (heart rate) [1] [%],% changes in haemodynamic variables: LVdp/dtmax/Pd (positive inotropic effect) [1] [%],"% changes in haemodynamic variables: T (time constant of relaxation, positive lusitropy) [1] [%]",also measured
CCOC(=O)CON=C(c1ccccc1)c1ccc2c(c1)CN1CC(=O)NC1=N2 [compound 6],380,-13,9,31,-15,–
"O=C1CN2Cc3cc(/C(=N/O)c4ccccc4)ccc3N=C2N1 [compound 3, (E)-3,5-dihydro-7-[(hydroxyimino)phenylmethyl]imidazo[2,1-b]quinazolin-2(1H)-one]",190,–,–,–,–,"cardiac output ([3]; anaesthetized mongrel dogs): increase in cardiac output; heart rate ([3]; anaesthetized mongrel dogs): without changing the heart rate; cardiac inotropy and lusitropy [3, 4]: dose-related increase; duration of effects after stopping the infusion [3, 4]: more than 90 minutes; systemic vasodilation [3, 4]: dose-related systemic vasodilation"
"O=C1CN2Cc3cc(C(=NO)c4ccccc4)ccc3N=C2N1 [compound 2, (E+Z)-3,5-dihydro-7-[(hydroxyimino)phenylmethyl]imidazo[2,1-b]quinazolin-2(1H)-one]",190,-10,15,102,-38,–
COc1ccc(C(=NO)c2ccc3c(c2)CN2CC(=O)NC2=N3)cc1 [compound 13],–,0,-10,45,-27,–
COc1ccc(C(=O)c2ccc3c(c2)CN2CC(=O)NC2=N3)cc1 [compound 12],–,0,10,57.5,-10,–

# More lines, main results first:
IC50 [2] [nM],SMILES,% changes in haemodynamic variables: AoPd (diastolic aortic blood pressure) [1] [%],% changes in haemodynamic variables: HR (heart rate) [1] [%],% changes in haemodynamic variables: LVdp/dtmax/Pd (positive inotropic effect) [1] [%],"% changes in haemodynamic variables: T (time constant of relaxation, positive lusitropy) [1] [%]",also measured
340,COc1ccc(C(=O)c2ccc3c(c2)CN2CC(=O)NC2=N3)cc1OC [compound 24],–,–,–,–,–
140,"CN(C(=O)CO/N=C(/c1ccccc1)c1ccc2c(c1)CN1CC(=O)NC1=N2)C1CCCCC1 [compound 10, (Z)-N-cyclohexyl-N-methyl-2-[[[phenyl(1,2,3,5-tetrahydro-2-oxoimidazo[2,1-b]quinazolin-7-yl)methylene]amino]-oxy]acetamide]",-5,0,18,-13,–
25,"CN(C(=O)CO/N=C(\c1ccccc1)c1ccc2c(c1)CN1CC(=O)NC1=N2)C1CCCCC1 [compound 9, (E)-N-cyclohexyl-N-methyl-2-[[[phenyl(1,2,3,5-tetrahydro-2-oxoimidazo[2,1-b]quinazolin-7-yl)methylene]amino]oxy]acetamide]",–,–,–,–,"variables related to cardiac performance (LV dp/dtmax, LV dp/dtmax/Pd) ([3]; 7 anaesthetized mongrel dogs, iv infusion over 120 min, starting after 10 min of infusion (0.05 mg.kg-1 total dose)): pronounced and significant increase; left ventricular end-diastolic pressure (preload) ([3]; anaesthetized mongrel dogs, iv infusion over 120 min): no change or even a slight decrease; time constant of relaxation ([3]; anaesthetized mongrel dogs, iv infusion, starting after 10 min of infusion (0.05 mg.kg-1 total dose)): significant decrease; Systemic and pulmonary peripheral vascular resistance ([3]; anaesthetized mongrel dogs, iv infusion, starting after 20 min of infusion (0.10 mg.kg-1 total dose)): decrease significantly; cardiac output ([3]; anaesthetized mongrel dogs): concomitant increase in cardiac output; heart rate ([3]; anaesthetized mongrel dogs): no change in heart rate; duration of the changes in the variables after stopping the infusion ([3]; positive inotropic, lusitropic and vasodilatory effects, total dose of 0.60 mg.kg-1): more than 75 min"
84,CCOC(=O)C=C(c1ccccc1)c1ccc2c(c1)CN1CC(=O)NC1=N2 [compound 32],–,–,–,–,–
520,O=C1CN2Cc3cc(C(=O)c4ccc(F)cc4)ccc3N=C2N1 [compound 14],0,5,35,-16,–
58,CN(C(=O)CON=C(c1ccccc1)c1ccc2c(c1)CN1CC(=O)NC1=N2)C1CCCCC1 [compound 8],0,0,29,-45,–
